From ChEMBL document CHEMBL1201862, “PubChem BioAssay data set” (2004)
Blank lines part the entries; values can stand above or below the compound they belong to. Calls of active or inactive are those of the source.

What was measured:
[1] = biological target: T1, Serine/threonine-protein phosphatase (Candida dubliniensis (strain CD36 / CBS 7987 / NCPF 3949 / NRRLY-17841) (Yeast), UniProt B9W6M3); assay: blockers of CaCl2-induced CDRE-lacZ signaling – S. cerevisiae, luminescence, secondary, dose response (AID 2388); type: functional, cell-based;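 also: yeast reporter cells carrying a calcineurin-responsive lacZ construct stimulated with calcium chloride; luminescent beta-galactosidase reporter signal in whole cells rather than isolated phosphatase activity; potency for inhibition where a drop in reporter signal means calcineurin blockade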
T1 sequence (B9W6M3 whole entry): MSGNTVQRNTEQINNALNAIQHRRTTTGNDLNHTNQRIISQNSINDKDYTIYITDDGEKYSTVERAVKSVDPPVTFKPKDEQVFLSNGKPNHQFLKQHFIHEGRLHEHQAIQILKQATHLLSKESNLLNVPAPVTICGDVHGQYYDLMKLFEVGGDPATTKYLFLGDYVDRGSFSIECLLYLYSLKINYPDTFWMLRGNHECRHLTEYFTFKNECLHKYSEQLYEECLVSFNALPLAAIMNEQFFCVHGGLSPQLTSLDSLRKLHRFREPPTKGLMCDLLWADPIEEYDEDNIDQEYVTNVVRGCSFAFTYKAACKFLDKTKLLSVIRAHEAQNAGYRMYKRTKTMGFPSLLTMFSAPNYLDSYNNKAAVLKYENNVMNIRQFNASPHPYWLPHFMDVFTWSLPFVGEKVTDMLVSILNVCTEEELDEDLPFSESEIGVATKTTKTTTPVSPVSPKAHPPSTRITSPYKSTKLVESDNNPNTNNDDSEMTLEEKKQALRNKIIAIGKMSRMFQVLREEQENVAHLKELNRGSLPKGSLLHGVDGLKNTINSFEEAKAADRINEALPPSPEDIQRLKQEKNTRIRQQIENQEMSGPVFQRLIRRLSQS

[2] = biological target: Heat shock protein HSP 90-alpha (Homo sapiens, UniProt P07900); type: functional, organism-based
[3] = NIH-3T3 fibroblast cytotoxicity, dose response, cytotoxicity control, cell-based, fluorescence, Alamar Blue, secondary assay (AID 2327); type: functional;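 also: NIH-3T3 mouse fibroblasts cultured with fluconazole at 8 µg/mL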
[4] = biological target: Melanocortin receptor 4 (Homo sapiens, UniProt P32245); type: functional, cell-based;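 also: Cell-based assay with luminescence read-out, confirmatory dose-response testing for agonist activity of biased ligands at MC4R; human U2OS cells with tagged receptor and beta-arrestin; potency of agonists that increase receptor coupling to beta-arrestin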
Sequence of Melanocortin receptor 4 (P32245 whole entry): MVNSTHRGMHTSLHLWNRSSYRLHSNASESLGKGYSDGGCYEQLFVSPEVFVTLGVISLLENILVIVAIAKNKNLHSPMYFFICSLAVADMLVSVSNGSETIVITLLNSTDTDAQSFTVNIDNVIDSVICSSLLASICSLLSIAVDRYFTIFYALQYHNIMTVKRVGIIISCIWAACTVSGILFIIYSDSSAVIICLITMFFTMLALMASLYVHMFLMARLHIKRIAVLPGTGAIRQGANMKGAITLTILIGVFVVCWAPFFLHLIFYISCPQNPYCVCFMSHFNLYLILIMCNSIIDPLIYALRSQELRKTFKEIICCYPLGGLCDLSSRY

[5] = biological target: ATP-dependent molecular chaperone HSP82 (Candida albicans (strain WO-1) (Yeast), UniProt C4YTQ8); assay: steroid-induced GRE reporter decrease in yeast – S. cerevisiae, luminescence, Hsp90 inhibitor project, dose response (AID 2400); type: functional, cell-based;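 also: beta-galactosidase luminescence from glucocorticoid response element reporter as proxy for Hsp90 function; inhibitor potency where signal loss means Hsp90 inhibition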
Sequence of ATP-dependent molecular chaperone HSP82 (C4YTQ8 whole entry, the tested form may be a part): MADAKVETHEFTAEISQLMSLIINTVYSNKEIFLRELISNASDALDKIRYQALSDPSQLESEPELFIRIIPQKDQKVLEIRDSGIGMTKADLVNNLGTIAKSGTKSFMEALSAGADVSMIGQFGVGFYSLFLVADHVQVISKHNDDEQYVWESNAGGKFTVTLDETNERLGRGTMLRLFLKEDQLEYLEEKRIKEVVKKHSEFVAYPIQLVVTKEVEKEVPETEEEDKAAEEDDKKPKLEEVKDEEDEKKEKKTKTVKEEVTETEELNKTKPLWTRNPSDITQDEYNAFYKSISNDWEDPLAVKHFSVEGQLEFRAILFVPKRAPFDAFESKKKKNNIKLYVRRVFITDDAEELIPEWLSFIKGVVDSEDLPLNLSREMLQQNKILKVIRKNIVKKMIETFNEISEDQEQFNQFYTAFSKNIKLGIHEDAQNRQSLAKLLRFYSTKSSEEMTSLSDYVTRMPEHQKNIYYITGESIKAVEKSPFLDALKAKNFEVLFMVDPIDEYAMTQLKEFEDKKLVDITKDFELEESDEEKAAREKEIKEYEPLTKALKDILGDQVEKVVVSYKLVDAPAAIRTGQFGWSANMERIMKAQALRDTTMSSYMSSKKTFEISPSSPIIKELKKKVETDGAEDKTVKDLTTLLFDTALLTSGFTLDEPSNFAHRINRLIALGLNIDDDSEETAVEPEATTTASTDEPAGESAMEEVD

[6] = biological target: Hepatocyte nuclear factor 4-alpha (Homo sapiens, UniProt P41235); type: functional, cell-based;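 also: biochemical luminescence-based dose-response counterscreen measuring inhibition of HNF4 dimerization, run alongside a screen for blockers of ABHD5–perilipin-5 interaction; split luciferase complementation of HNF4 fusion proteins in cell lysate measuring dimerization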
Sequence of Hepatocyte nuclear factor 4-alpha (P41235 whole entry, the tested form may be a part): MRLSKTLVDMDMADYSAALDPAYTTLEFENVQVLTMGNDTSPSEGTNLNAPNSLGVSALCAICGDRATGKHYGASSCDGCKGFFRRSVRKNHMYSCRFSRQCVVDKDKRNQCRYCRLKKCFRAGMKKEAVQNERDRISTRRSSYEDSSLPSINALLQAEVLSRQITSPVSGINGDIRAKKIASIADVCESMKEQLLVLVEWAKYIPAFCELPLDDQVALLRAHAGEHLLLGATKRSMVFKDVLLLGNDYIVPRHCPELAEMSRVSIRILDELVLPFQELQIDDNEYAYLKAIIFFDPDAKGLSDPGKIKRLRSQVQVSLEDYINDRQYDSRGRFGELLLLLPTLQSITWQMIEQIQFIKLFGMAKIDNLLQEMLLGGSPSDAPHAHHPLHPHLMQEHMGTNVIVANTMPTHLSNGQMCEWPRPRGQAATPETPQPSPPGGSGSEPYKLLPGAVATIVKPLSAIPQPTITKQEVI

[7] = fluconazole-exposed Candida albicans growth modulators – fluorescence, retest, confirmation (AID 2467); type: functional, cell-based
[8] = biological target: T1, Serine/threonine-protein phosphatase; assay: Fluorescence Cell-Based Secondary Assay to Identify Inhibitors of Calcineurin. [Related pubchem assays (depositor defined):AID1979, AID2007]; type: functional
[9] = biological target: T2, Mannose-6-phosphate isomerase (Homo sapiens, UniProt P34949); assay: MPI inhibition at elevated mannose 6-phosphate – biochemical, fluorescence intensity, high mannose 6-phosphate, primary screen (AID 1220)
T2 sequence (P34949 whole entry): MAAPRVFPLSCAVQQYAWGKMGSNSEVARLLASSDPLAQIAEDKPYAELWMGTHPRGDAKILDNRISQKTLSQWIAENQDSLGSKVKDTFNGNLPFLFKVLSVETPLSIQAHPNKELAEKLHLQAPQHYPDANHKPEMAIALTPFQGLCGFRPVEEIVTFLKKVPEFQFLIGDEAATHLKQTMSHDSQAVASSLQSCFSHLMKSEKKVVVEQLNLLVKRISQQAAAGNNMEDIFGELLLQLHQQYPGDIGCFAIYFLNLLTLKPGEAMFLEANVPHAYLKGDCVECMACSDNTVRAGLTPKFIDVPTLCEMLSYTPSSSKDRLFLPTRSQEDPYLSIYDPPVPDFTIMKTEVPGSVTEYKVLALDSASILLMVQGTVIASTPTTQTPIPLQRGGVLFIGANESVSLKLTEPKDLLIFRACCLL

[10] = biological target: Genome polyprotein (dengue virus type 2, UniProt P29990); assay: flavivirus cap methylation enzyme inhibition – biochemical, confirmation dose response, primary screen (AID 588689); type: functional
Sequence of Genome polyprotein (P29990 2492-3391 limits assumed): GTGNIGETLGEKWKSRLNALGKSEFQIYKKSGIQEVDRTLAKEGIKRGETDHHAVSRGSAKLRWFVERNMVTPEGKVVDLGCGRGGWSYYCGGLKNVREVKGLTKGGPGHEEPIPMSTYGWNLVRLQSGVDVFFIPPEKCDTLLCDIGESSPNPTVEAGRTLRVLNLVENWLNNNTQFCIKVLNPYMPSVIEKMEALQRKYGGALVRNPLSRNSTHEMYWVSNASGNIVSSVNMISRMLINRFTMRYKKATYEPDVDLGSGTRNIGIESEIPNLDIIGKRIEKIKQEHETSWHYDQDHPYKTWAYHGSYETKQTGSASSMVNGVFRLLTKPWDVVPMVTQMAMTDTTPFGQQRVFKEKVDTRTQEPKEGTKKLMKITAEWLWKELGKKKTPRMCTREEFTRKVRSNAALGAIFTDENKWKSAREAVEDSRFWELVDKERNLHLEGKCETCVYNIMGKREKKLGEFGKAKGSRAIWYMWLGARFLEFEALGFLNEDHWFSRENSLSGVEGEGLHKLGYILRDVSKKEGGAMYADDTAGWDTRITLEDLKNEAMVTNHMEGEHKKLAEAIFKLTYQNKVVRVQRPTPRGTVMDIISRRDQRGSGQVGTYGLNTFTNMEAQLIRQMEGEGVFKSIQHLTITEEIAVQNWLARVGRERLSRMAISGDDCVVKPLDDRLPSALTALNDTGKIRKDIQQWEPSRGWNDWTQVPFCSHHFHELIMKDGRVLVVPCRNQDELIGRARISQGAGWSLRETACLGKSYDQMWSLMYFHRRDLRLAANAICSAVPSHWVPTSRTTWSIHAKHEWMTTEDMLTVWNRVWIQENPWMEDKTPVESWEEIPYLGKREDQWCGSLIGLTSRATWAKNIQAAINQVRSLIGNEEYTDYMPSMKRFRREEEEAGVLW

[11] = biological target: T3, Ubiquitin-conjugating enzyme E2 N (Homo sapiens, UniProt P61088); type: functional
T3 sequence (P61088 whole entry): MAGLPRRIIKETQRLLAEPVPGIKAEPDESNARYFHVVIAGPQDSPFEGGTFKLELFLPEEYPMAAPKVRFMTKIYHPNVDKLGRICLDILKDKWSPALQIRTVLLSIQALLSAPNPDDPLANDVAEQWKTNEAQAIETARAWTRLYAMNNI

[12] = biological target: Bcl-2-related protein A1 (Mus musculus, UniProt Q07440); type: functional;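 also: confirmatory dose–response counterscreen on Bfl-1, used to check hits from a UBC13 polyubiquitin inhibitor campaign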
Sequence of Bcl-2-related protein A1 (Q07440 whole entry): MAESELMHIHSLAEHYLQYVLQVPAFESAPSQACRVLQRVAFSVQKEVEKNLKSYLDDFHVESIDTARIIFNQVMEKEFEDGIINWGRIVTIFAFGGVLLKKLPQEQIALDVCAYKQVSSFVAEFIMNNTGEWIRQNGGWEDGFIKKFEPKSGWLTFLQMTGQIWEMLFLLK

[13] = biological target: T3, Ubiquitin-conjugating enzyme E2 N; type: functional; remark: listed apart in the source
[14] = viability of uninfected HEp-2 cells – cell-based, HTS, cytotoxicity control for RSV inhibitor project, dose response (AID 2410); type: functional; details: human respiratory syncytial virus
[15] = biological target: Cytochrome P450 2D6 (Homo sapiens, UniProt P10635);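 also: CYP2D6 member of a cytochrome P450 panel assay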
Sequence of Cytochrome P450 2D6 (P10635 whole entry): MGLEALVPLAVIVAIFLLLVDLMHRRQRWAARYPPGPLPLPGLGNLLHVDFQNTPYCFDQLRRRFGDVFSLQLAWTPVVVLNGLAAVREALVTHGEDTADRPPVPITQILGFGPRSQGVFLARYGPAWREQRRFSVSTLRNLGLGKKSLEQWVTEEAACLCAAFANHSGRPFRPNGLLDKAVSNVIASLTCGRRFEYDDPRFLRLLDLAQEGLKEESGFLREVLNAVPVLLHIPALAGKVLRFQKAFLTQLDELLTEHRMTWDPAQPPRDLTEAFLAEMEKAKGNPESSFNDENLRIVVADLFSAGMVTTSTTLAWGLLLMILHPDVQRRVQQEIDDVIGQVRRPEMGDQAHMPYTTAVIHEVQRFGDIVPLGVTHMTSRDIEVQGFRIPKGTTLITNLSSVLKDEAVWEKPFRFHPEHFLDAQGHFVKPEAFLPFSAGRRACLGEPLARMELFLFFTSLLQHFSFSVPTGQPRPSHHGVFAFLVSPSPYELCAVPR

[16] = biological target: T4, E3 ubiquitin-protein ligase XIAP (Homo sapiens, UniProt P98170); assay: small molecules displacing peptide from XIAP – biochemical, IAP family, fluorescence polarization (AID 1018); type: functional
T4 sequence (P98170 whole entry): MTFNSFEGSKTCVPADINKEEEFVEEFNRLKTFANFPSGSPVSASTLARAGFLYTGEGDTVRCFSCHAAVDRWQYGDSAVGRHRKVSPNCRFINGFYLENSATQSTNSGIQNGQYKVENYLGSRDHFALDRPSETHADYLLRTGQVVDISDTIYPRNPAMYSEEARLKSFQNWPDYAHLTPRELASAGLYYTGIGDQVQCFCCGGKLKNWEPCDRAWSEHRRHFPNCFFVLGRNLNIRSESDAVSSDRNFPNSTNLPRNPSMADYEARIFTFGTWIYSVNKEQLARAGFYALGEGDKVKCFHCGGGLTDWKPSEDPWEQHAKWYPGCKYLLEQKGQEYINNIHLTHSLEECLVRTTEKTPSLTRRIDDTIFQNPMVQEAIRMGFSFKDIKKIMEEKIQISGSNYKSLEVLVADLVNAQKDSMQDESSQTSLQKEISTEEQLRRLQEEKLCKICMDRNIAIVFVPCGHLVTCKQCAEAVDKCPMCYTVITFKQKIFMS

[17] = biological target: T4, E3 ubiquitin-protein ligase XIAP; assay: Counter Screen using XIAP-Bir3 for Chemical Antagonists of Bir1/2 domains of IAP-family anti-apoptotic proteins. [Related pubchem assays (depositor defined):AID1018, AID1449, AID1514, AID1638, AID1749, AID1750, AID488957, AID488963]
[18] = biological target: Troponin, cardiac muscle (Homo sapiens, UniProt P19429+P45379+P63316); assay: Fluorescence-based biochemical high throughput dose response assay for activators of the calcium sensitivity of cardiac Regulated Thin Filaments (RTF). [Related pubchem assays (depositor defined):AID493008, AID493018, AID504382, AID504383]; type: protein-complex assay
[19] = biological target: Peroxisome proliferator-activated receptor gamma/Nuclear receptor coactivator 2 (Homo sapiens, UniProt P37231); type: functional;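 also: agonist potency for raising coactivator recruitment to the receptor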
[20] = biological target: Peroxisome proliferator-activated receptor gamma/Nuclear receptor coactivator 3 (Homo sapiens, UniProt P37231); type: functional;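 also: agonist potency for raising coactivator recruitment to the receptor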
[21] = biological target: Peroxisome proliferator-activated receptor gamma/Nuclear receptor coactivator 1 (Homo sapiens, UniProt P37231); type: functional;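 also: agonist potency as compounds enhance coactivator SRC-1 recruitment to PPARgamma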
[22] = biological target: Glucose-6-phosphate 1-dehydrogenase (Homo sapiens, UniProt P11413); assay: inhibition of Homo sapiens G6PD, dose series – biochemical, fluorescence, selectivity assay for P. falciparum G6PD inhibitor project, dose response (AID 504792); type: functional
Sequence of Glucose-6-phosphate 1-dehydrogenase (P11413 whole entry): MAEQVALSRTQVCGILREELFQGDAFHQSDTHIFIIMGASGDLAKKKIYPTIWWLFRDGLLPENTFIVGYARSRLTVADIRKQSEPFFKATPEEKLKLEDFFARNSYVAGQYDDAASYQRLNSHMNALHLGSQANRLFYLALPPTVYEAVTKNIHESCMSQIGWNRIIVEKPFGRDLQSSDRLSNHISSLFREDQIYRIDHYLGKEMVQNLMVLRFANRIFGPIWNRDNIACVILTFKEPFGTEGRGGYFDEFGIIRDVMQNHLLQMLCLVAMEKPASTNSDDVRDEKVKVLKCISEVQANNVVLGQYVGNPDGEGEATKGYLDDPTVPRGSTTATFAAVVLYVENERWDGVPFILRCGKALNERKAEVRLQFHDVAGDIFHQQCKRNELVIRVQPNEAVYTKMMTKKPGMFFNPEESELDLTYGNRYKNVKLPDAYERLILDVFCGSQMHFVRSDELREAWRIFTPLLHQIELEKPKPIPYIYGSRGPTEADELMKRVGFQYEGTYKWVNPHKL

SMILES: Cc1ccc(C(=O)c2coc3c2C(=O)C(=O)c2ccccc2-3)cc1
EC50 [1]: 3.78 µM (active) | AC50 [2]: 3.84 µM (active) | EC50 [3]: 27.9 µM (active) | EC50 [4]: > 89.2 µM (inactive) | EC50 [5]: 1.21 µM (active) | IC50 [6]: 3.8 µM (active) | EC50 [7]: 0.983 µM (active) | EC50 [8]: 9.27 µM (active) | IC50 [9]: > 50 µM (not active) | IC50 [10]: 55 µM (active)

SMILES: Cc1ccc(/C=C/C(=O)N2CCN(S(=O)(=O)c3ccc(C)c(C)c3)CC2)o1
IC50 [22]: > 80 µM (inactive)

More lines, main results first:

IC50 [11]: 19.6 µM (active) | IC50 [12]: > 20 µM (inactive) | IC50 [13]: > 20 µM (inactive) | AC50 [15]: 15.8 µM (inconclusive)
SMILES: O=C(CCCn1c(=S)[nH]c2ccc(Br)cc2c1=O)N1CCN(c2ccccn2)CC1
CC50 [14]: 23.6 µM (active)

IC50 [16]: > 100 µM (not active) | IC50 [17]: > 100 µM (inactive)
SMILES: CCC(C)NC(=O)C(=O)NC1CCCC1 (centres undefined)

IC50 [16]: > 100 µM (not active) | IC50 [17]: > 100 µM (inactive)
SMILES: Cc1ccc(NS(=O)(=O)c2cc(C(=O)N(C)C)ccc2C)cc1C

EC50 [18]: > 71.5 µM (inactive) | EC50 [19]: > 79.4 µM (not active) | EC50 [20]: > 79.4 µM (not active) | EC50 [21]: > 79.4 µM (not active)
SMILES: Cn1nc(-c2ccccc2)c(C(=O)Nc2ccc(C(F)(F)F)cc2)c1Cl
